Reference: patent US11117901B2, “Substituted pyrazolo[4,3-h]quinazolines as choline kinase inhibitors” (NERVIANO MEDICAL SCIENCES S.R.L., priority 2017, dated 2021)
pIC50: −log10 of the molar value.

Experiments:
[1] = biological target: T1, hChoKβ FL (Homo sapiens, UniProt Q9Y259); assay: Biochemical kinase inhibition assay (Kinase-Glo luminescent) on hChoKβ FL; conditions: recombinant hChoKβ FL 30 nM, ATP 5 μM, choline 20 μM, 60 min rt; read-out: ChoKβ IC50
T1 construct: hChoKβ full length (FL), corresponding to aminoacids 2-395; GST (N, cleaved yes); PreScission Protease recognition site (N); made in house; host or cells: Escherichia coli BL21pLysS (DE3)
T1 sequence (Q9Y259 2-395): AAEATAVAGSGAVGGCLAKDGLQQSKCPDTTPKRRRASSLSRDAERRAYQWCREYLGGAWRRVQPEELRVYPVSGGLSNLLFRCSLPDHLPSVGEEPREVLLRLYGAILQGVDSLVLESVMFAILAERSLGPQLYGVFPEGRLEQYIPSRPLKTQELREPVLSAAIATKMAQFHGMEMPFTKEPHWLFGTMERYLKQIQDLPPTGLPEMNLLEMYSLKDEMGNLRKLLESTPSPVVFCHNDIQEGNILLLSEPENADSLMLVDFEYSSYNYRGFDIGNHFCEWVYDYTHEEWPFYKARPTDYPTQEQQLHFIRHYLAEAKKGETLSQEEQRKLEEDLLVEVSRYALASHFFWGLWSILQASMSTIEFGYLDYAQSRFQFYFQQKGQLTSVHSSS
Description: (§1) HumanΔ49ChoKα ([…]Δ49N-hChoKα) cDNA fragment 362-1534, corresponding to aminoacids 50 457 (J. Mol. Biol. 2006, 364, 136-151), and hChoKβ full length (FL), corresponding to aminoacids 2-395 ((PLoS ONE 2009, 4, e7819), were amplified by PCR from human library and cloned, inserting upstream a Prescission Protease recognition site, in pDonor 221 vector, using the Gateway Technology® (Invitrogen). After sequence control, LR reaction was performed in the final expression pGEX 2Tg vector. Both the proteins were expressed in Escherichia coli BL21pLysS (DE3) strain in auto-induction (Kessler) medium in the presence of […] carbenicillin at 25° C. for 16 h. Cells were harvested by centrifugation, the pellet was re-suspended in Lysis buffer (50 mM Tris-HCl pH 7.8, 150 mM NaCl, 10% glycerol, 0.2% CHAPS, 20 mM DTT, Protease Inhibitor Cocktail Tablets from Roche Biochemicals) and lysed by Gaulin homogenizer (Niro Soavi). The lysate was cleared by centrifugation. The supernatant was added to GSH resin and let flow by gravity. The GSH resin was washed with 5 column volume (CV) of cold wash buffer (50 mM Tris-HCl pH 7.8, 150 mM NaCl, 10% glycerol), then with 10 CV of the same buffer containing 2 mM of DTT. Both GST-Δ49N-hChoKα and hChoKβ were subjected to on-column cleavage of the GST tag with Prescission Protease overnight. The eluted cleaved proteins were further purified by ion exchange (ResQ 6 mL chromatography column from GE healthcare) with a gradient from 50 to 500 mM NaCl in 30 CV. The fractions containing […]Δ49N-hChoKα or hChoKβ were pooled, concentrated and gel filtered on a Superdex200 16/60 (GE Healthcare). The final protein concentration was estimated using the Bradford assay. All the samples purified were resolved by SDS-PAGE.
(§2) Biochemical Kinase inhibition Assay on Δ49N-hChoKα and hChoKβFL
(§3) The biochemical activity of compounds against Δ49N-ChoKα and ChoK3 FL were determined using the Kinase-Glo™ Luminescent Kinase Assay (Promega cat. V6711). The assay is based on incubation of the recombinant Δ49N-hChoKα and hChoKβ FL produced in house, 2.2 nM and 30 nM, respectively, with the specific substrates, choline (Sigma-Aldrich-C7017) and ATP, followed by quantification, at the end of reaction time, of the residual not reacted ATP.
(§4) Compounds were 3-fold serially diluted from 10 to 0.0005 μM, then incubated for 60 minutes at room temperature in the presence of ATP 5 μM, choline (5 μM for ChoKα and 20 μM for ChoKβ) and enzyme in a final volume of 19 μL of kinase buffer (50 mM Hepes pH 7.5, 10 mM MgCl2, 1 mM DTT, 3 μM Na3VO4 and 0.2 mg/mL BSA). The final concentration of DMSO was 1%. The assay was run in a robotized format on 384-well plates (Perkin Elmer cat. #6005301).
(§5) At the end of the incubation, an amount of 19 μL of KinaseGlo Reagent was added to each well to stop the reaction and after 30 minutes the luminescence signal was measured using ViewLux reader (Perkin Elmer).
(§6) All information about plate dilution, distribution and raw data of inhibition are tracked via barcode reading and stored in an Oracle DB. The data per each molecule are analyzed by an internally customized version of the SW package “Assay Explorer” which provides sigmoidal fittings of the ten-dilution curves for IC50 determination using a 4 parameter logistic equation: y=bottom+(top−bottom)/(1+10^((log IC50−x)*slope)) where x is the logarithm of the inhibitor concentration, y is the response; y starts at bottom and goes to top with a sigmoid shape.

[2] = biological target: T2, Δ49N-hChoKα (Homo sapiens, UniProt P35790); assay: Biochemical kinase inhibition assay (Kinase-Glo luminescent) on Δ49N-hChoKα; conditions: recombinant Δ49N-hChoKα 2.2 nM, ATP 5 μM, choline 5 μM, 60 min rt; read-out: ChoKα IC50
T2 construct: cDNA fragment 362-1534, corresponding to aminoacids 50 457; GST (N, cleaved yes); PreScission Protease recognition site (N); made in house; host or cells: Escherichia coli BL21pLysS (DE3)
T2 sequence (P35790 50-439 isoform P35790-2): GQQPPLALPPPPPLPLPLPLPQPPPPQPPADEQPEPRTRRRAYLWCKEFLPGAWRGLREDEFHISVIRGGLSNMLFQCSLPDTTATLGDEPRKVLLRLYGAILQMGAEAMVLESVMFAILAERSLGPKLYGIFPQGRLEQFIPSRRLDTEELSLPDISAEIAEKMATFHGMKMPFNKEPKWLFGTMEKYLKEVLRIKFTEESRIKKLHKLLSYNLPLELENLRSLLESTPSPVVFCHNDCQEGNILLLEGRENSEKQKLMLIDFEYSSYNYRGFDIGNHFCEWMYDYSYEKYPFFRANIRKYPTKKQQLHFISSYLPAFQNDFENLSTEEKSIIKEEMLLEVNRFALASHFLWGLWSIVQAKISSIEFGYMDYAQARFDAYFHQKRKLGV
Description: as §1, §2, §3, §4, §5, §6

**Q.** With CC1(C)Cc2cnc(N)nc2-c2[nH]nc(C(=O)Nc3ccc(C(=O)N4CCC(NC(=O)CCCO)CC4)cc3)c21 [compound 53] as the compound, how does the pIC50 [1] read?
**A.** 5.45

**Q.** And the pIC50 [2]?
**A.** 6.15

**Q.** CC1(C)Cc2cnc(N)nc2-c2[nH]nc(C(=O)Nc3ccc(C(=O)N4CCC(N5CCOC5=O)CC4)cc3)c21 [compound 56] was tested. Which pIC50 [1] did it give?
**A.** 6.09

**Q.** What about the pIC50 [2] of the same compound?
**A.** 6.68

**Q.** How did the pIC50 [1] turn out when CC1CCN(C2CCN(C(=O)Cc3csc(NC(=O)c4n[nH]c5c4C(C)(C)Cc4cnc(N)nc4-5)n3)CC2)CC1 [compound 58] was run?
**A.** 7.09

**Q.** And the pIC50 [2]?
**A.** 8.70

**Q.** With CC1(C)Cc2cnc(N)nc2-c2[nH]nc(C(=O)Nc3ccc(C(=O)Nc4ccc(CN5CCCCC5)cc4)cc3)c21 [compound 59] as the compound, how does the pIC50 [1] read?
**A.** 6.13

**Q.** And the pIC50 [2]?
**A.** 7.49

**Q.** With CC1(C)Cc2cnc(N)nc2-c2[nH]nc(C(=O)Nc3nccs3)c21 [compound 61] as the compound, how does the pIC50 [1] read?
**A.** 5.58

**Q.** What about the pIC50 [2] of the same compound?
**A.** 6.62

**Q.** With CC1(C)Cc2cnc(N)nc2-c2[nH]nc(C(=O)Nc3nc4ccccc4s3)c21 [compound 62] as the compound, how does the pIC50 [1] read?
**A.** 6.33

**Q.** What about the pIC50 [2] of the same compound?
**A.** 7.07

**Q.** COc1ccc2nc(NC(=O)c3n[nH]c4c3C(C)(C)Cc3cnc(N)nc3-4)sc2c1 [compound 63] was tested. Which pIC50 [1] did it give?
**A.** 6.35

**Q.** What about the pIC50 [2] of the same compound?
**A.** 7.59

**Q.** What does the source list for CC1(C)Cc2cnc(N)nc2-c2[nH]nc(C(=O)Nc3nc4ccc(Cl)cc4s3)c21 [compound 64]?
**A.** pIC50 [1]: 5.31; pIC50 [2]: 6.51

**Q.** How did the pIC50 [1] turn out when Cc1cnc(NC(=O)c2n[nH]c3c2C(C)(C)Cc2cnc(N)nc2-3)s1 [compound 65] was run?
**A.** 5.79

**Q.** And the pIC50 [2]?
**A.** 6.86

**Q.** What does the source list for CC1(C)Cc2cnc(N)nc2-c2[nH]nc(C(=O)Nc3ncc(Cl)s3)c21 [compound 66]?
**A.** pIC50 [1]: 5.24; pIC50 [2]: 6.15

**Q.** What does the source list for CC1(C)Cc2cnc(N)nc2-c2[nH]nc(C(=O)Nc3nc(C(=O)O)cs3)c21 [compound 67]?
**A.** pIC50 [1]: 6.15; pIC50 [2]: 7.09

**Q.** Which results are given for CC1(C)Cc2cnc(N)nc2-c2[nH]nc(C(=O)Nc3nc(C(=O)NC4CCCCC4)cs3)c21 [compound 68]?
**A.** pIC50 [1]: < 5.00; pIC50 [2]: 6.79

**Q.** How did the pIC50 [1] turn out when CN1CCC(NC(=O)c2csc(NC(=O)c3n[nH]c4c3C(C)(C)Cc3cnc(N)nc3-4)n2)CC1 [compound 69] was run?
**A.** 7.06

**Q.** And the pIC50 [2]?
**A.** 7.44

**Q.** How did the pIC50 [1] turn out when CC1(C)Cc2cnc(N)nc2-c2[nH]nc(C(=O)Nc3nc(C(=O)N4CCC(N5CCCCC5)CC4)cs3)c21 [compound 70] was run?
**A.** 5.97

**Q.** And the pIC50 [2]?
**A.** 7.46

**Q.** With CC(C)(C)NC(=O)NC1CCN(C(=O)Cc2csc(NC(=O)c3n[nH]c4c3C(C)(C)Cc3cnc(N)nc3-4)n2)CC1 [compound 71] as the compound, how does the pIC50 [1] read?
**A.** 5.71

**Q.** And the pIC50 [2]?
**A.** 8.05

**Q.** What does the source list for CC1(C)Cc2cnc(N)nc2-c2[nH]nc(C(=O)Nc3ncc(CC(=O)O)s3)c21 [compound 72]?
**A.** pIC50 [1]: 5.60; pIC50 [2]: 6.57

**Q.** With CC1(C)Cc2cnc(N)nc2-c2[nH]nc(C(=O)Nc3ncc(CC(=O)NC4CCCCC4)s3)c21 [compound 73] as the compound, how does the pIC50 [1] read?
**A.** 6.22

**Q.** And the pIC50 [2]?
**A.** 6.86

**Q.** What does the source list for CN1CCC(NC(=O)Cc2cnc(NC(=O)c3n[nH]c4c3C(C)(C)Cc3cnc(N)nc3-4)s2)CC1 [compound 74]?
**A.** pIC50 [1]: 5.87; pIC50 [2]: 7.10

**Q.** Which results are given for CC1(C)Cc2cnc(N)nc2-c2[nH]nc(C(=O)Nc3ncc(CC(=O)N4CCC(N5CCCCC5)CC4)s3)c21 [compound 75]?
**A.** pIC50 [1]: 5.76; pIC50 [2]: 7.33

**Q.** Cc1nc(NC(=O)c2n[nH]c3c2C(C)(C)Cc2cnc(N)nc2-3)sc1C(=O)NC1CCCCC1 [compound 77] was tested. Which pIC50 [1] did it give?
**A.** 5.94

**Q.** What about the pIC50 [2] of the same compound?
**A.** 6.70

**Q.** With Cc1nc(NC(=O)c2n[nH]c3c2C(C)(C)Cc2cnc(N)nc2-3)sc1C(=O)N1CCC(N2CCCCC2)CC1 [compound 78] as the compound, how does the pIC50 [1] read?
**A.** 5.59

**Q.** And the pIC50 [2]?
**A.** 6.66
